Data reported in ChEMBL document CHEMBL5046289, “Targeting the S2 Subsite Enables the Structure-Based Discovery of Novel Highly Selective Factor XIa Inhibitors” (J Med Chem, 2022).
The source made the active and inactive calls. No cut-off for these calls is given here.

How the values were obtained:
[1] = species: Homo sapiens; test: Selectivity index, ratio of IC50 for plasma kallikrein (unknown origin) to IC50 for coagulation factor XIa (unknown origin)
[2] = species: Homo sapiens; test: Selectivity index, ratio of IC50 for coagulation factor VIIa (unknown origin) to IC50 for coagulation factor XIa (unknown origin)
[3] = species: Homo sapiens; test: Selectivity index, ratio of IC50 for trypsin (unknown origin) to IC50 for coagulation factor XIa (unknown origin)
[4] = species: Homo sapiens; test: Selectivity index, ratio of IC50 for coagulation factor IXa (unknown origin) to IC50 for coagulation factor XIa (unknown origin)
[5] = species: Homo sapiens; test: Selectivity index, ratio of IC50 for coagulation factor Xa (unknown origin) to IC50 for coagulation factor XIa (unknown origin)
[6] = molecular target: T1, Coagulation factor XI (Homo sapiens, UniProt P03951); test: Inhibition of coagulation factor XIa (unknown origin) assessed as chromogenic substrate hydrolysis using CS-21(66) as substrate incubated for 1 hr by spectrophotometer based microplate reader method
T1 sequence (P03951 19-387 limits assumed): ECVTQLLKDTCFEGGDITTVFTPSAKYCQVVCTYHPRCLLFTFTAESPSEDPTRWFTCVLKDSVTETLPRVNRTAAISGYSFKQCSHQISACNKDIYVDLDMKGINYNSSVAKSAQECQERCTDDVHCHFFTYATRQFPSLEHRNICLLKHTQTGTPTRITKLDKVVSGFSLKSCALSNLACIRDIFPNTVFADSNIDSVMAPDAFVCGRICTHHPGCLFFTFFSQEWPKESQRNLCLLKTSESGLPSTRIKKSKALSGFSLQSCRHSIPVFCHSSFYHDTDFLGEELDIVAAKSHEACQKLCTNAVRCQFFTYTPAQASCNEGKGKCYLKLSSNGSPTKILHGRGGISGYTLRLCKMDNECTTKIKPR
T1 sequence (P03951 388-625 limits assumed): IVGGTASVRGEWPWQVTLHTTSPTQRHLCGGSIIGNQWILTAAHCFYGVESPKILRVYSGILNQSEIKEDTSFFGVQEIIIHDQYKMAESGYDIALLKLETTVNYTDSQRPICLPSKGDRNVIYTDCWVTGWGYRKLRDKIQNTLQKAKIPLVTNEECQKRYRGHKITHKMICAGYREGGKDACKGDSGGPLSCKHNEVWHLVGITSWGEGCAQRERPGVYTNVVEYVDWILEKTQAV

[7] = molecular target: T2, Prothrombin (Homo sapiens, UniProt P00734); test: Inhibition of thrombin (unknown origin) assessed as chromogenic substrate using CS-10(38) as substrate incubated for 1 hr by spectrophotometer based microplate reader method
[8] = molecular target: T3, Coagulation factor VII (Homo sapiens) (UniProt P08709); test: Inhibition of coagulation factor VIIa (unknown origin) assessed as chromogenic substrate using chromozyme t-PA as substrate at 1 mM incubated for 1 hr by spectrophotometer based microplate reader method
T3 sequence (whole entry): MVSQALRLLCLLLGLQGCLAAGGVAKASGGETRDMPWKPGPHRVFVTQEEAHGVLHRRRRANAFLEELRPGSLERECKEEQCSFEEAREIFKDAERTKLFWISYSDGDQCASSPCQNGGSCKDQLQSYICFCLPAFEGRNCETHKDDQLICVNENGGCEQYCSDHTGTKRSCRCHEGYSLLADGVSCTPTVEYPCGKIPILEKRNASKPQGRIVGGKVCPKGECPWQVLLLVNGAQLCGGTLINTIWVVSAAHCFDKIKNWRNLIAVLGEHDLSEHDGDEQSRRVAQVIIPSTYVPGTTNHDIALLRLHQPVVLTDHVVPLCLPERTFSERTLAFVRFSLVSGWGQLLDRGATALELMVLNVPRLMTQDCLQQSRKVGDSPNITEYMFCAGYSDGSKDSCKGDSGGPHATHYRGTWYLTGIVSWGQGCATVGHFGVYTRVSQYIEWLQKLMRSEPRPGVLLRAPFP

[9] = species: Homo sapiens; test: Selectivity index, ratio of IC50 for coagulation factor XIIa (unknown origin) to IC50 for coagulation factor XIa (unknown origin)
[10] = molecular target: Serine protease 1 (Homo sapiens) (UniProt P07477); test: Inhibition of trypsin (unknown origin) assessed as chromogenic substrate using CS-11(22) as substrate at 1 mM incubated for 1 hr by spectrophotometer based microplate reader method
Sequence of Serine protease 1 (Homo sapiens) (P07477 whole entry): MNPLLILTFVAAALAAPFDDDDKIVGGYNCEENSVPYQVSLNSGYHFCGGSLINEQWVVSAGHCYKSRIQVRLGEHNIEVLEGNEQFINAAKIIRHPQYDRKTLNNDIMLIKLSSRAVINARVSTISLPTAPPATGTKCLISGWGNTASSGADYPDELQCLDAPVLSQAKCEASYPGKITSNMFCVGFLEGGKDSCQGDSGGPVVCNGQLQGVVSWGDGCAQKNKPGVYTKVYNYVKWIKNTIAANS

[11] = molecular target: Coagulation factor X (Homo sapiens, UniProt P00742); test: Inhibition of coagulation factor Xa (unknown origin) assessed as chromogenic substrate using CS-11(22) as substrate incubated for 1 hr by spectrophotometer based microplate reader method
Sequence of Coagulation factor X (P00742 41-179 limits assumed): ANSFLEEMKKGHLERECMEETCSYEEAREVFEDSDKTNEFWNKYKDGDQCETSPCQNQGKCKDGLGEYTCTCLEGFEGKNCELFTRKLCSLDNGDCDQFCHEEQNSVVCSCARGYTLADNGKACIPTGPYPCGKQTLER
Sequence of Coagulation factor X (P00742 235-488 limits assumed): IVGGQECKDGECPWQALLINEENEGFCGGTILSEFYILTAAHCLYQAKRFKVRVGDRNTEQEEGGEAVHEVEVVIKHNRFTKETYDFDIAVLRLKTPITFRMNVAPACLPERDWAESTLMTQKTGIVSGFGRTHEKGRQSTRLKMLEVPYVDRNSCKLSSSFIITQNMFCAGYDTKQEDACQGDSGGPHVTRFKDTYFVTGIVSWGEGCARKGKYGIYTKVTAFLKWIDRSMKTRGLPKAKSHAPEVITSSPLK

[12] = molecular target: T1, Coagulation factor XI; details: dose 50.0 nM, time 1.0 hrs
[13] = species: Homo sapiens; test: Selectivity index, ratio of IC50 for thrombin (unknown origin) to IC50 for coagulation factor XIa (unknown origin)
[14] = molecular target: T4, Coagulation factor XII (Homo sapiens) (UniProt P00748); test: Inhibition of coagulation factor XIIa (unknown origin) assessed as chromogenic substrate using TH5253 as substrate at 1 mM incubated for 1 hr by spectrophotometer based microplate reader method
T4 sequence (whole entry): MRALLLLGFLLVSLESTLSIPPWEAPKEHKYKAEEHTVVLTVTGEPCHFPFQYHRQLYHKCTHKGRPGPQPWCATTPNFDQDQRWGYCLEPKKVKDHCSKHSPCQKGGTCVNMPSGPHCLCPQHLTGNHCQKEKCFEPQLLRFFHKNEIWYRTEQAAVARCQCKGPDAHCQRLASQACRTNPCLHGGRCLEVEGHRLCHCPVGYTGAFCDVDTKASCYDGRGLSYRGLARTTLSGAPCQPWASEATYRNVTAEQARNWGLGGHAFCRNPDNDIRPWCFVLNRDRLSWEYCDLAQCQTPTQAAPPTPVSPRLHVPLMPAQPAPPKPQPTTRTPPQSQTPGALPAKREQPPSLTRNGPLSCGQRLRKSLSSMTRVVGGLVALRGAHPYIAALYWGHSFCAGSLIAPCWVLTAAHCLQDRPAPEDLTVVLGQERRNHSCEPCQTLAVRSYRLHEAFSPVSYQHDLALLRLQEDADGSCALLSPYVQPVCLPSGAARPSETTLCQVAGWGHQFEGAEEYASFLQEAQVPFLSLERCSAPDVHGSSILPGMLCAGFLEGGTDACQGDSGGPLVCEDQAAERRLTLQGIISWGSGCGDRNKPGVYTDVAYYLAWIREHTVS

[15] = molecular target: Plasma kallikrein (Homo sapiens, UniProt P03952); test: Inhibition of plasma kallikrein (unknown origin) assessed as chromogenic substrate hydrolysis using CS-31(02) as substrate incubated for 1 hr by spectrophotometer based microplate reader method
Sequence of Plasma kallikrein (P03952 20-390 limits assumed): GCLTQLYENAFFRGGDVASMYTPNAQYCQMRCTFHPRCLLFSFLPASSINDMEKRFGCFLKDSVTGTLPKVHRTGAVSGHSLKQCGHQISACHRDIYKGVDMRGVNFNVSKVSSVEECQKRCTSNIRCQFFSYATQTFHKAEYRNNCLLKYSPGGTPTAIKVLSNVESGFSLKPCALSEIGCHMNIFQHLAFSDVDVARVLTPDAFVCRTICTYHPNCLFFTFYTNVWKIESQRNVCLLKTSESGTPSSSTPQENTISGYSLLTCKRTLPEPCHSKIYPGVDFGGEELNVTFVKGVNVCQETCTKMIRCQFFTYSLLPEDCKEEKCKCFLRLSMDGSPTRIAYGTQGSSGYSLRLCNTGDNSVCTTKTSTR
Sequence of Plasma kallikrein (P03952 391-638 limits assumed): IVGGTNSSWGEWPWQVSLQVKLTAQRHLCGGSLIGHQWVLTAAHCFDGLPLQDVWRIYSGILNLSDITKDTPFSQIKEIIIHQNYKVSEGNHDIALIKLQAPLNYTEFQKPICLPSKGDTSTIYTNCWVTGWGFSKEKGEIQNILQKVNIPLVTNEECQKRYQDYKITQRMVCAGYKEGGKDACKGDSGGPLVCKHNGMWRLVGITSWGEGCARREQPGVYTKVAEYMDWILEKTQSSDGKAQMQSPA

[16] = molecular target: Coagulation factor IX (Homo sapiens) (UniProt P00740); test: Inhibition of coagulation factor IXa (unknown origin) assessed as chromogenic substrate using ADG299 as substrate at 1 mM incubated for 1 hr by spectrophotometer based microplate reader method
Sequence of Coagulation factor IX (Homo sapiens) (P00740 47-191 limits assumed): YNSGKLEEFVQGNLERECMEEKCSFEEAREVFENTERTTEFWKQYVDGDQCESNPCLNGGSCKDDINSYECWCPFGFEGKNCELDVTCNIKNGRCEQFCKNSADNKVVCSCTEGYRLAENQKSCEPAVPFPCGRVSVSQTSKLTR
Sequence of Coagulation factor IX (Homo sapiens) (P00740 227-461 limits assumed): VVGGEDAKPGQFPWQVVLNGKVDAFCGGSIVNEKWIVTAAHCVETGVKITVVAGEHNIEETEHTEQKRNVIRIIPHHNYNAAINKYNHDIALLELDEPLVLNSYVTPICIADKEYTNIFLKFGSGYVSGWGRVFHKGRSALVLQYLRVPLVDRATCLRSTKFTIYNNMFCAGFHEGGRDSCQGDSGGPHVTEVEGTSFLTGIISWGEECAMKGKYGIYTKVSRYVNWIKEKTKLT

[17] = molecular target: T2, Prothrombin; test: Inhibition of thrombin (unknown origin) assessed as chromogenic substrate using CS-10(38) as substrate at 1 mM incubated for 1 hr by spectrophotometer based microplate reader method
[18] = Toxicity in C57BL/6J mouse assessed as bleeding risk at 60 to 100 mg/kg, iv measured after 15 mins by tail transection assay; type: organism-based; details: in vivo, 0.25 h, dose 60-100 mg/kg
[19] = Toxicity in C57BL/6J mouse assessed as bleeding risk at 35 mg/kg, iv measured after 15 mins by tail transection assay; type: organism-based; details: in vivo, 0.25 h
[20] = Toxicity in C57BL/6J mouse assessed as bleeding risk at 20 mg/kg, iv measured after 15 mins by tail transection assay; type: organism-based; details: in vivo, 0.25 h

| SMILES | Ratio IC50 [1] | IC50 [6] | inhibition [12] | IC50 [15] | other results |
| --- | --- | --- | --- | --- | --- |
| O=C(/C=C/c1cc(Cl)ccc1-n1cnnn1)N[C@@H](CC(=O)N1CCSCC1)C(=O)Nc1ccc(C(=O)O)cc1 | 756 | 18.5 nM | 52.3% | 14000 nM | Ratio IC50 [2]: > 5000; Ratio IC50 [3]: > 5000; Ratio IC50 [4]: > 5000; Ratio IC50 [5]: > 5000; inhibition [7]: inactive; inhibition [8]: inactive; Ratio IC50 [9]: > 5000; inhibition [10]: inactive; IC50 [11]: 980000 nM; Ratio IC50 [13]: > 5000; inhibition [14]: inactive; inhibition [16]: inactive; inhibition [17]: inactive |
| CC(=O)N1CCN(C(=O)C[C@H](NC(=O)/C=C/c2cc(Cl)ccc2-n2cnnn2)C(=O)Nc2ccc(C(=O)O)cc2)CC1 | 226 | 76.5 nM | 23.2% | 17300 nM |  |
| CCN1CCN(C(=O)C[C@H](NC(=O)/C=C/c2cc(Cl)ccc2-n2cnnn2)C(=O)Nc2ccc(C(=O)O)cc2)CC1 | 106 | 25.5 nM | 45.5% | 2700 nM |  |
| Cc1ccc(CN2CCN(C(=O)C[C@H](NC(=O)/C=C/c3cc(Cl)ccc3-n3cnnn3)C(=O)Nc3ccc(C(=O)O)cc3)CC2)cc1 | 45 | 26.5 nM | 43.5% | 1200 nM |  |
| O=C(/C=C/c1cc(Cl)ccc1-n1cnnn1)N[C@@H](CC(=O)N1CCN(Cc2ccccc2)CC1)C(=O)Nc1ccc(C(=O)O)cc1 | 35 | 30.2 nM | 53.3% | 1060 nM |  |
| CC(C)N1CCN(C(=O)C[C@H](NC(=O)/C=C/c2cc(Cl)ccc2-n2cnnn2)C(=O)Nc2ccc(C(=O)O)cc2)CC1 | 16 | 31.2 nM | 44% | 490 nM |  |
| O=C(/C=C/c1cc(Cl)ccc1-n1cnnn1)N[C@@H](CCC(=O)N1CCN(CC2CC2)CC1)C(=O)Nc1ccc(C(=O)O)cc1 | 42 |  | 41.7% | 3100 nM |  |
| O=C(/C=C/c1cc(Cl)ccc1-n1cnnn1)N[C@@H](Cc1ccccc1)C(=O)Nc1ccc(C(=O)O)cc1 |  |  |  |  | Activity [18]: Toxic; Activity [19]: Non-Toxic; Activity [20]: Non-Toxic |
| O=C(/C=C/c1cc(Cl)ccc1-n1cnnn1)N[C@@H](CCC(=O)N1CCSCC1)C(=O)Nc1ccc(C(=O)O)cc1 | 50 | 132 nM | 21.9% | 6700 nM |  |
| O=C(/C=C/c1cc(Cl)ccc1-n1cnnn1)N[C@@H](CC(=O)N1CCN(CCO)CC1)C(=O)Nc1ccc(C(=O)O)cc1 | 295 | 11.5 nM | 60.2% | 3400 nM |  |
| O=C(/C=C/c1cc(Cl)ccc1-n1cnnn1)N[C@@H](CC(=O)N1CCCN(CC2CC2)CC1)C(=O)Nc1ccc(C(=O)O)cc1 | 21 | 67.1 nM | 34.7% | 1400 nM |  |
| O=C(/C=C/c1cc(Cl)ccc1-n1cnnn1)N[C@@H](CC(=O)N1CCN(CC2CC2)CC1)C(=O)Nc1ccc(C(=O)O)cc1 | 77 | 7.8 nM | 65.7% | 600 nM |  |
